Results reported in US9809640B2, “ApoE peptide dimers and uses thereof” (priority 2010, dated 2017).
Like-named read-outs stand apart in the source and are kept apart here. Non-standard residues stand in square brackets, D forms with d. Residues, ends and D or L forms follow the SMILES beside them. No end group written: not given here. Aib = CC(C)(N)C(=O)O

Columns and labels:
BV2 microglia cells = assay: LPS-induced nitric oxide production in BV2 microglia cells; type: cell-based; conditions: 50% suppression of nitric oxide release from BV2 cells following LPS stimulation
Experimental: FIG. 1. COG 112 inhibits LPS-induced production of inflammatory cytokines in BV2 microglia cells. Inhibition curves for COG112 in the production of NO (green squares), TNFα (red diamonds), and IL-6 (blue triangles) by BV2 microglia. Compounds were added to the final concentrations indicated on the graph along with 100 ng/mL of LPS. After 24 hours the media was removed and assayed by two-site ELISA (BioSource) and quantitated relative to a standard curve on the same plate.
FIG. 3. NO Inhibition curve for COG449. BV2 microglia were treated with COG449 at the final concentrations indicated on the graph, along with 100 ng/mL of LPS. After 24 hours the media was removed and assayed by two-site ELISA (BioSource) and quantitated relative to a standard curve on the same plate.
(§1) We also evaluated the various peptides for efficacy in suppressing nitric oxide production induced by LPS stimulation of BV2 microglia cells as a measure of anti-inflammatory activity as well as the maximum dose tolerated in mice (Table I and FIG. 6A). For the LPS assay, EC50 is the concentration of compound that caused a 50% suppression of nitric oxide release from BV2 cells following LPS stimulation. For mouse toxicity, MTD is the maximum dose of the compound that can be given by intravenous injection without causing deaths after 24 hrs. […] Coupling the ApoE domain to a protein transduction domain further enhanced the potency of the dimers.
Low passage BV2 microglial cell cultures are maintained in 10% HI (Heat Inactivated) FBS DMEM media (supplemented with MEM NEAA (Non-Essential Amino Acids), sodium pyruvate and Pen-Strep) and continuously cultured until needed. To determine the IC50 values for NO production, peptides are added to BV2 cultures in 1% HI FBS DMEM media (supplemented with MEM NEAA and sodium pyruvate) at a range of final assay concentrations from 1.0 μM in 2 fold dilutions to 7.8 nM followed immediately by addition of LPS (100 ng/mL final concentration) as previously described (Laskowitz et al. (2001) Exp Neurol, Vol. 167(1): 74-85). After incubating for 18±1 hours, conditioned media is removed for analysis of nitrite (the stable oxidation product of released nitric oxide) by the Griess colorimetric assay (Promega). Remaining cells are assayed for viability in an MTT assay (Promega) and the nitrite assay values are normalized for each concentration using the percent viability of cells in the MTT assay. […] Typically, the absence of LPS exposure to BV2 cells results in levels below the limit of detection in our assays. Similarly, addition of any of the peptides up to 25 μM without LPS results in undetectable NO levels.

B-CLL cells = assay: Cytotoxicity on patient-derived B-CLL cells (MTS assay); conditions: for Fold Change: CLL EC50 relative to COG056 (rev133) = 1.0
Source text: FIG. 5A: Dose response curves for COG449 cytotoxicity on CLL cells from 4 leukemia patients. Human CLL cells were isolated from blood samples and assayed for COG449 cytotoxicity. […] FIG. 5B: Dose response curves for COG445 on CLL cells from 7 patients or normal B-cells from 5 patients. Human CLL cells and PBMC were isolated and assayed for cytotoxicity of COG445.
Blood from CLL patients was collected and CD5+/CD19+ CLL cells were isolated using the RosetteSep™ Human B-Cell Enrichment Cocktail, according to the manufacturer's instructions, and treated with COG compounds. Compounds were applied to B-CLL cells (2.5×10^5 cells/well in a 96 well plate), after which the cells were treated for 72 hours.
Normal B-cells from volunteers and B-CLL cells from patients are isolated using the RosetteSep™ Human B Cell Enrichment Cocktail according to the manufacturer's instructions. This method depletes whole blood of T cells, monocytes, and NK cells using a proprietary antibody cocktail that cross-links unwanted cells in human whole blood to multiple red blood cells (RBCs) forming immunorosettes. This increases the density of the unwanted (rosetted) cells, such that they pellet along with the free RBCs when centrifuged over a buoyant density medium such as Ficoll-Paque®. This leaves the highly enriched B-cell or B-CLL cells at the interface between Ficoll and the plasma. The antibodies in the cocktail contain […] and anti-CD16 antibodies to remove T cells, monocytes, and NK cells, respectively. The purity of these B-cell and B-CLL preparations is then determined by flow cytometry.
For cytotoxicity assays, 3×10^6 CLL cells/well are cultured in 24 well tissue culture plates in 1.5 mL of Hybridoma SFM™ (Gibco, Long Island, N.Y.) as described by Levesque et al. (2001, 2003). All cultures are incubated at 37° C., 5% CO2 in air.

[1] = Mouse toxicity, maximum tolerated dose by intravenous injection; conditions: in vivo, maximum dose by intravenous injection without deaths after 24 hrs
Source text: as §1

U87MG glioblastoma cells = type: cell-based; conditions: MTT
Experimental: FIG. 14A: Dose response curve of COG445 on proliferation of U87 (open circles) and MDA-MB-231 (filled circles) cells as measured by MTT reduction. FIG. 14B: Dose response curve of COG445 on proliferation of MDA-MB-231 cells as measured by cell count.
To determine whether ApoE peptide dimers were cytotoxic to other types of cancer, we evaluated the effect of three different ApoE BMOE-linked peptide dimers (COG449, COG492, COG493; see Table I) on the growth characteristics of U87MG glioblastoma cells. Various concentrations of COG449, COG492, COG493 or Sorafenib were used to treat U87MG glioblastoma cells and viable cells were quanititated using MTT. Sorafenib, which has previously been reported to be cytotoxic to glioblastoma cells (Yang et al. (2010) Mol Cancer Ther., Vol. 9(4):953-962), was used as a positive control.
Because COG445 inhibited Akt activation and downstream signaling, we examined the effects of COG445 on cellular proliferation. Adherent MB231 and U87 cells were grown for ˜24 hours in the presence of COG445 and cellular proliferation was measured by MTT reduction. […] Furthermore, COG445 inhibited MB231 cellular proliferation as determined by cell count (FIG. 14B). Approximately 6×10^4 cells were plated in growth media (RPMI+10% FBS) for 24-hours with increasing concentrations of COG445. […] However at concentrations ≧1 μM COG445, there appears to be a loss of cells. This is partially explained by decreased proliferation, although it is possible that the rate of cellular degradation was increased in the presence of COG445.

normal B-cells = assay: Cytotoxicity on normal B-cells from volunteers; type: cell-based, human; conditions: normal B-cells from volunteers
Source text: Normal B-cells from volunteers and B-CLL cells from patients are isolated using the RosetteSep™ Human B Cell Enrichment Cocktail according to the manufacturer's instructions. This method depletes whole blood of T cells, monocytes, and NK cells using a proprietary antibody cocktail that cross-links unwanted cells in human whole blood to multiple red blood cells (RBCs) forming immunorosettes. This increases the density of the unwanted (rosetted) cells, such that they pellet along with the free RBCs when centrifuged over a buoyant density medium such as Ficoll-Paque®. This leaves the highly enriched B-cell or B-CLL cells at the interface between Ficoll and the plasma. The antibodies in the cocktail contain anti-CD14, anti-CD2 and anti-CD16 antibodies to remove T cells, monocytes, and NK cells, respectively. The purity of these B-cell and B-CLL preparations is then determined by flow cytometry. Preparations typically average less than 2% CD3+ T-cells and less than 0.5% CD14+ monocytes. In the case of B-CLL cell isolation, we routinely obtain preparations that contain less than 1.5% normal CD19+/CD5− B-cells using this method.

[2] = read-out: CLL EC50, B-CLL cells from patients, 72 hours, MTS assay

| Compound | EC50 (BV2 microglia cells) [nM] | Fold Change (B-CLL cells) | EC50 (B-CLL cells; [2]) [nM] | MTD at 24 h [1] [mg/kg] | cytotoxicity to U87MG cells (U87MG glioblastoma cells) | EC50 (B-CLL cells; read-out: ED50 cytotoxic potency (text, Table I), CLL cells) [nM] | EC50 (normal B-cells) [nM] |
| --- | --- | --- | --- | --- | --- | --- | --- |
| CC[C@H](C)[C@H](NC(=O)[C@H](CCCCN)NC(=O)[C@@H](NC(=O)[C@H](CCC(N)=O)NC(=O)[C@@H](N)CCCNC(=N)N)[C@@H](C)CC)C(=O)N[C@@H](Cc1c[nH]c2ccccc12)C(=O)N[C@@H](Cc1ccccc1)C(=O)N[C@@H](CCC(N)=O)C(=O)N[C@@H](CC(N)=O)C(=O)N[C@@H](CCCNC(=N)N)C(=O)N[C@@H](CCCNC(=N)N)C(=O)N[C@@H](CCSC)C(=O)N[C@@H](CCCCN)C(=O)N[C@@H](Cc1c[nH]c2ccccc12)C(=O)N[C@@H](CCCCN)C(=O)N[C@@H](CCCCN)C(=O)N[C@@H](CS)C(=O)N[C@@H](C)C(=O)N[C@@H](CO)C(=O)NC(C)(C)C(=O)N[C@@H](CC(C)C)C(=O)N[C@@H](CCCNC(=N)N)C(=O)N[C@@H](CCCCN)C(=O)N[C@@H](CC(C)C)C(=O)NC(C)(C)C(=O)N[C@@H](CCCCN)C(=O)N[C@@H](CCCNC(=N)N)C(=O)N[C@@H](CC(C)C)C(=O)N[C@@H](CC(C)C)C(=O)O [COG120, RQIKIWFQNRRMKWKK-C-AS(Aib)LRKL(Aib)KRLL (SEQ ID NO: 7)] (H-RQIKIWFQNRRMKWKKCAS[Aib]LRKL[Aib]KRLL-OH; N-terminus and C-terminus assumed) | < 1000 | 12.6 | 1000 |  |  |  |  |
| CC(C)C[C@H](NC(=O)[C@H](CC(C)C)NC(=O)[C@H](CCCNC(=N)N)NC(=O)[C@H](CCCCN)NC(=O)C(C)(C)NC(=O)[C@H](CC(C)C)NC(=O)[C@H](CCCCN)NC(=O)[C@H](CCCNC(=N)N)NC(=O)[C@H](CC(C)C)NC(=O)C(C)(C)NC(=O)[C@H](CO)NC(=O)[C@H](C)NC(=O)[C@H](CS)NC(=O)[C@H](CCCNC(=N)N)NC(=O)[C@H](CCCNC(=N)N)NC(=O)[C@H](CCCNC(=N)N)NC(=O)[C@H](CCC(N)=O)NC(=O)[C@H](CCCNC(=N)N)NC(=O)[C@H](CCCNC(=N)N)NC(=O)[C@H](CCCCN)NC(=O)[C@H](CCCCN)NC(=O)[C@H](CCCNC(=N)N)NC(=O)CNC(=O)[C@@H](N)Cc1ccc(O)cc1)C(=O)O [COG226, YGRKKRRQRRR-C-AS(Aib)LRKL(Aib)KRLL (SEQ ID NO: 6)] (H-YGRKKRRQRRRCAS[Aib]LRKL[Aib]KRLL-OH) | < 1000 | 9.2 | 1400 |  |  |  |  |
| CC(=O)N[C@@H](CSC1CC(=O)N(CCN2C(=O)CC(SC[C@H](NC(C)=O)C(=O)N[C@@H](CC(C)C)C(=O)N[C@@H](CCCNC(=N)N)C(=O)N[C@H](C(=O)N[C@@H](CCCNC(=N)N)C(=O)N[C@@H](CC(C)C)C(=O)N[C@@H](C)C(=O)N[C@@H](CO)C(=O)N[C@@H](Cc3c[nH]cn3)C(=O)N[C@@H](CC(C)C)C(=O)N[C@@H](CCCNC(=N)N)C(=O)N[C@@H](CCCCN)C(=O)N[C@@H](CC(C)C)C(=O)N[C@@H](CCCNC(=N)N)C(=O)N[C@@H](CCCCN)C(=O)N[C@@H](CCCNC(=N)N)C(=O)N[C@@H](CC(C)C)C(=O)N[C@@H](CC(C)C)C(N)=O)C(C)C)C2=O)C1=O)C(=O)N[C@@H](CC(C)C)C(=O)N[C@@H](CCCNC(=N)N)C(=O)N[C@H](C(=O)N[C@@H](CCCNC(=N)N)C(=O)N[C@@H](CC(C)C)C(=O)N[C@@H](C)C(=O)N[C@@H](CO)C(=O)N[C@@H](Cc1c[nH]cn1)C(=O)N[C@@H](CC(C)C)C(=O)N[C@@H](CCCNC(=N)N)C(=O)N[C@@H](CCCCN)C(=O)N[C@@H](CC(C)C)C(=O)N[C@@H](CCCNC(=N)N)C(=O)N[C@@H](CCCCN)C(=O)N[C@@H](CCCNC(=N)N)C(=O)N[C@@H](CC(C)C)C(=O)N[C@@H](CC(C)C)C(N)=O)C(C)C (some centres unmarked) [COG492, C-LRVRLASHLRKLRKRLL (SEQ ID NO: 15) <BMOE> C-LRVRLASHLRKLRKRLL (SEQ ID NO: 15)] |  |  |  | 25 | cytotoxic |  |  |
| CC(=O)N[C@@H](CC(C)C)C(=O)N[C@@H](CCCNC(=N)N)C(=O)N[C@H](C(=O)N[C@@H](CCCNC(=N)N)C(=O)N[C@@H](CC(C)C)C(=O)N[C@@H](C)C(=O)N[C@@H](CO)C(=O)N[C@@H](Cc1c[nH]cn1)C(=O)N[C@@H](CC(C)C)C(=O)N[C@@H](CCCNC(=N)N)C(=O)N[C@@H](CCCCN)C(=O)N[C@@H](CC(C)C)C(=O)N[C@@H](CCCNC(=N)N)C(=O)N[C@@H](CCCCN)C(=O)N[C@@H](CCCNC(=N)N)C(=O)N[C@@H](CC(C)C)C(=O)N[C@@H](CC(C)C)C(N)=O)C(C)C [COG133, LRVRLASHLRKLRKRLL (SEQ ID NO: 3)] |  |  |  | 16 |  | 4400 ± 1500 | > 20000 |
| LLRKRLKRLHSALRVRL [COG056, LLRKRLKRLHSALRVRL (SEQ ID NO: 2), reference compound] | > 20000 | 1.0 | 12900 |  |  |  |  |
